In US20110136867A1, “Treatment of Synucleinopathies” (priority 2006, published 2011):
Entries after “also recorded” stand apart in the source; their conditions may differ.

Tests used:
[1] = test system: α-synuclein; experiment: Immunostaining for human α-synuclein in brain sections of α-synuclein transgenic mice; assay type: in vivo; conditions: vs vehicle
Experimental: (§1) Farnesyl transferase inhibitors Zarnestra and OSI-754 were administered to mice of the α-synuclein transgenic line described in Masliah et al. (Masliah et al. “Dopaminergic loss and inclusion body formation in alpha-synuclein mice: implications for neurodegenerative disorders” Science 287(5456):1265-69, 2000; incorporated herein by reference). Animals from this line have α-synuclein neuronal inclusions in the cortex, hippocampus, and the olfactory bulb (Masliah et al. “Dopaminergic loss and inclusion body formation in alpha-synuclein mice: implications for neurodegenerative disorders” Science 287(5456):1265-69, 2000; incorporated herein by reference). Transgenic mice were orally administered either FTI in 20% cyclodextrin solution or the same volume of vehicle alone twice a day for 30 or 90 days. In some cases, non-transgenic mice also received vehicle twice a day for 30 to 90 days. At the end of treatment, mice were sacrificed, and the brains removed and hemisected. One hemisphere of each was fixed in 4% paraformaldehyde/PBS (pH 7.4), cryoperserved, then sectioned for histology. The other hemisphere was subdivided into four brain regions, including the cortex and hippocampus, that were homogenized and processed into cytoplasmic and membrane fractions.
Formation of α-synuclein inclusions in the cortex and hippocampus was probed by immunostaining with an antibody for human α-synuclein. Cells positive for human α-synuclein were quantified. […] These regions were also analyzed for ubiquitin-immunoreactive inclusions and by the Campbell Switzer method of silver staining. Ubiquitin is known to be a constituent of Lewy Bodies and in the α-synculein inclusions found in the transgenic mouse line used in the study (Masliah et al. “Dopaminergic loss and inclusion body formation in alpha-synuclein mice: implications for neurodegenerative disorders” Science 287(5456):1265-69, 2000; incorporated herein by reference). […] Campbell-Switzer staining is a general marker of Lewy Body type inclusions (Uchihara et al. “Silver stainings distinguish Lewy bodies and glial cytoplasmic inclusions: comparison between Gallyas-Braak and Campbell-Switzer methods” Acta Neuropathol. (Berl.) 110(3):255-60, 2005; incorporated herein by reference).

[2] = test system: α-synuclein; experiment: Sandwich ELISA of total α-synuclein in brain fractions of α-synuclein transgenic mice; assay type: in vivo
Experimental: as §1
Total α-synuclein levels were analyzed by a sandwich ELISA assay similar to one previously described (El-Agnaf et al. “Detection of oligomeric forms of alpha-synuclein protein in human plasma as a potential biomarker for Parkinson's disease” FASEB J. 20(3):419-25, 2006; incorporated herein by reference). In the cortex of vehicle treated animals, α-synuclein protein levels in the α-synuclein transgenic line are greater than in non-transgenic mice in both cytoplasmic (FIG. 10) and membrane fractions (FIG. 11).

[3] = test system: farnesylated UCH-L1; experiment: Quantitative Western Blot of farnesylated UCH-L1 in cortex membrane fraction of α-synuclein transgenic mice; assay type: in vivo; conditions: 30 days
Experimental: (§2) Farnesyl transferase inhibitors Zarnestra and OSI-754 were administered to mice of the α-synuclein transgenic line described in Masliah et al. (Masliah et al. “Dopaminergic loss and inclusion body formation in alpha-synuclein mice: implications for neurodegenerative disorders” Science 287(5456):1265-69, 2000; incorporated herein by reference). Animals from this line have α-synuclein neuronal inclusions in the cortex, hippocampus, and the olfactory bulb (Masliah et al. “Dopaminergic loss and inclusion body formation in alpha-synuclein mice: implications for neurodegenerative disorders” Science 287(5456):1265-69, 2000; incorporated herein by reference). Transgenic mice were orally administered either FTI in 20% cyclodextrin solution or the same volume of vehicle alone twice a day for 30 or 90 days. In some cases, non-transgenic mice also received vehicle twice a day for 30 to 90 days. At the end of treatment, mice were sacrificed, and the brains removed and hemisected. One hemisphere of each was fixed in 4% paraformaldehyde/PBS (pH 7.4), cryoperserved, then sectioned for histology. […]
Farnesylated UCH-L1 in the cortex is contained in the membrane fraction. The amount of UCH-L1 was determined by quantitative Western Blot.
Total α-synuclein levels were analyzed by a sandwich ELISA assay. […] The amount of farnesylated UCH-L1 was determined by quantitative Western Blot, then normalized to actin.

[4] = test system: Neuronal Specific Nuclear Protein (NeuN); experiment: NeuN staining of cortex and hippocampus of α-synuclein transgenic mice; assay type: in vivo; conditions: 90 days of treatment
Experimental: as §2
Formation of α-synucleininclusions in the cortex and hippocampus was probed by immunostaining with an antibody for human α-synuclein. Cells positive for human α-synuclein were quantified. […]

[5] = test system: α-synuclein; experiment: α-synuclein degradation assay in transfected COS-7 cells (quantitative Western blotting); assay type: cell-based
Text: Plasmids: C220S cDNA was generated by PCR site-specific mutagenesis. For the PCR, the 5′ primer is uchforw SEQ ID NO: 1 ([…]), and 3′ primer is uchc220s SEQ ID NO:2 (CTAAGA […]). Wt UCH-L1 served as the template. The PCR fragment was inserted into pcDNA vector. For S18YC220S mutant, S18Y UCH-L1 served as the template in PCR. For the FLAG tagged UCH-L1, the 5′ primer is FLAGuchforw SEQ ID NO: 3 ([…] CGATGGAG), and the 3′ primer is uchrev SEQ ID NO: 4 ([…]). Wt UCH-L1 or C220S served as the template. PCR fragment was purified and inserted into pcDNA vector. For the FLAG tagged UCH-L3, the 5′ primer is L3HindIII SEQ ID NO: 5 (CTAAAGCTTATGGACTAC […]), the 3′primer is L3XhoISAA SEQ ID NO: 6 ([…]). […] After 24 hours of incubation, the cells were lysed with Tris buffer (50 mM Tris, 2% SDS, 0.1% NP-40), and subjected to SDS-PAGE, followed by quantitative Western blotting.
(§3) Western Blotting: Following transfer of SDS gels onto NC membrane, all membranes were blocked with 5% non-fat milk in TBST (50 mM Tris-HCl pH7.4, 150 mM NaCl, 0.1% Tween 20), and incubated with primary antibody overnight with 1% BSA in TBST, washed three times with TBST, and incubated with horseradish peroxidase-conjugated secondary antibody for 1 hour (Promega). Bound antibodies were detected using enhanced chemiluminascence (NEM). […]

[6] = test system: SH-SY5Y cells overexpressing α-synuclein; experiment: α-synuclein toxicity in SH-SY5Y cells infected by α-synuclein-expressing adenovirus (Trypan blue viable cell counting, MTT assay); assay type: cell-based
Experimental: Viral Infection: Viral infection and MTT assay in SH-SY5Y cells: The viruses were amplified and purified according to the published procedure. SH-SY5Y cells were grown on 100 mm petri-dishes and induced with 100 nM retinoic acid for 3-5 days before the virus infection with M.I.O at 75. Viruses were diluted with DPBS to desired M.I.O. After four hours of incubation, 10 ml growth medium was added. On the second day, cells were splitted into 96-well plates and treated with compounds for next 48 hours. The growth medium in each well was replaced with growth medium with 5 ug/ml MTT. Medium was removed after three hours incubation, and 200 ul isopropyl (0.04N HCl) was added into each well. The signal was read at 570 nm.
Viable cell counting: At stated time poins, SH-SY5Y cells were trypsinized with 100 ul trypsin-EDTA for 1 minute and neutralized with 400 ul growth medium. Cell suspension was made up by mixing 0.2 ml of cells in growth medium, 0.3 ml of HBSS and 0.5 ml of 0.4% Trypan Blue solution. Viable cell numbers were counted by standard cell counting chamber.
Since α-synuclein neurotoxicity is dose-dependent, it follows that accumulation of α-synuclein, caused by UCH-L1 farnesylation, should promote its toxicity. […] These cells express high endogenous levels of UCH-L1. […] The unit of y-axis is 10^5 /ml. (F) Cell viability was assessed by the amount of metabolic activity using MTT assay. […]

[7] = test system: primary dopaminergic cultures; experiment: α-synuclein toxicity in primary dopaminergic cultures; assay type: cell-based
[8] = test system: UCH-L1; experiment: Membrane bound and cytosolic UCH-L1 in SH-SY5Y cells (2D electrophoresis, Western blotting); assay type: cell-based; conditions: compared to DMSO
Experimental: 2D electrophoresis: For the isolation of total cellular protein, cultured SH-SY5Y cells maintained as described above were rinsed with ice-cold PBS. Cells were lysed in 1 ml dSDS buffer (50 mM Tris-HCl, pH 8.0 0.1% SDS) supplemented with protease inhibitor cocktail. Lysates were boiled for 3 min, and were treated with Dnase and Rnase as described. Lysates were precipitated with ice-cold acetone for at least 2 hours, and pellets were resuspended in 2D sample buffer (8M urea, 0.5% CHAPS, 0.2% DTT, 0.5% IPG buffer, 0.002% bromophenol blue). 2D electrophoresis was carried out according to manufacture's protocol (Amersham Life Science). 7 cm pH 4-7 strips were used. For SH-SY5Y membrane fraction, culture SH-SY5Y cells were rinsed with cold PBS and harvested with lysis buffer (50 mM Tris-HCl, pH 8.0, 1 mM ZnAc2, 250 mM sucrose). Lysate was passed through 25G needles for several times and spun at 1000 g for 5 min. […]
as §3

[9] = test system: UCH-L1; experiment: Total amount and turnover of UCH-L1 in SH-SY5Y cells (pulse-chase); assay type: cell-based
[10] = test system: α-synuclein; experiment: α-synuclein accumulation in SH-SY5Y cells infected with α-synuclein-expressing adenovirus (Western blotting, normalized against actin); assay type: cell-based
Experimental: Western Blotting: Following transfer of SDS gels onto NC membrane, all membranes were blocked with 5% non-fat milk in TBST (50 mM Tris-HCl pH7.4, 150 mM NaCl, 0.1% Tween 20), and incubated with primary antibody overnight with 1% BSA in TBST, washed three times with TBST, and incubated with horseradish peroxidase-conjugated secondary antibody for 1 hour (Promega). Bound antibodies were detected using enhanced chemiluminascence (NEM).
Since α-synuclein neurotoxicity is dose-dependent, it follows that accumulation of α-synuclein, caused by UCH-L1 farnesylation, should promote its toxicity. […] These cells express high endogenous levels of UCH-L1. […] The unit of y-axis is 10^5 /ml. (F) Cell viability was assessed by the amount of metabolic activity using MTT assay. […] The effect of FTI-277 on the α-synuclein accumulation in the SH-SY5Y infected with α-synuclein-expressing adenovirus were analyzed by Western blotting (B) and the amount of α-synuclein (C) was quantified using NIH Image program and normalized against the amount of actin.

[11] = test system: ubiquitin-immunoreactive inclusions; experiment: Ubiquitin immunohistochemistry in brain of α-synuclein transgenic mice; assay type: in vivo; conditions: 35 mg/kg twice a day, 30 days; vs vehicle
Experimental: (§4) Farnesyl transferase inhibitors Zarnestra and OSI-754 were administered to mice of the α-synuclein transgenic line described in Masliah et al. (Masliah et al. “Dopaminergic loss and inclusion body formation in alpha-synuclein mice: implications for neurodegenerative disorders” Science 287(5456):1265-69, 2000; incorporated herein by reference). Animals from this line have α-synuclein neuronal inclusions in the cortex, hippocampus, and the olfactory bulb (Masliah et al. “Dopaminergic loss and inclusion body formation in alpha-synuclein mice: implications for neurodegenerative disorders” Science 287(5456):1265-69, 2000; incorporated herein by reference). Transgenic mice were orally administered either FTI in 20% cyclodextrin solution or the same volume of vehicle alone twice a day for 30 or 90 days. In some cases, non-transgenic mice also received vehicle twice a day for 30 to 90 days. At the end of treatment, mice were sacrificed, and the brains removed and hemisected. […]
(§5) Formation of α-synuclein inclusions in the cortex and hippocampus was probed by immunostaining with an antibody for human α-synuclein. Cells positive for human α-synuclein were quantified. […] These regions were also analyzed for ubiquitin-immunoreactive inclusions and by the Campbell Switzer method of silver staining. […]

[12] = test system: Lewy body-like inclusions; experiment: Campbell Switzer silver staining of Lewy body-like inclusions in α-synuclein transgenic mice; assay type: in vivo; conditions: 35 mg/kg twice a day, 30 days; vs vehicle
Experimental: as §4, §5

[13] = cortex, 45 mg/kg twice a day, 30 days, vs vehicle
[14] = cortex, 35 mg/kg twice a day, 30 days, vs vehicle-treated transgenic mice

## C#Cc1cccc(-c2cc(=O)n(C)c3ccc(C(O)(c4ccc(Cl)cc4)c4cncn4C)cc23)c1 (stereo not drawn) [OSI-754]
[1]; cortex, 9 mg/kg twice a day, 90 days
  α-synuclein-positive cells per mm^2: fewer
[1]; cortex, 45 mg/kg twice a day, 90 days
  α-synuclein-positive cells per mm^2: fewer
[1]; hippocampus, 9 mg/kg twice a day, 90 days
  α-synuclein-positive cells per mm^2: fewer
[1]; hippocampus, 45 mg/kg twice a day, 90 days
  α-synuclein-positive cells per mm^2: fewer
[2]; cortex, 9 mg/kg twice a day, 90 days, vs vehicle
  α-synuclein protein levels, cytoplasmic fraction: lower α-synuclein protein levels
[2]; [13]
  α-synuclein protein levels, cytoplasmic fraction: lower α-synuclein protein levels
  α-synuclein protein levels, membrane fraction: lower α-synuclein protein levels
[2]; cortex, 45 mg/kg twice a day, 90 days, vs vehicle
  α-synuclein protein levels, cytoplasmic fraction: lower α-synuclein protein levels
[2]; hippocampus, 9 mg/kg twice a day, 90 days, vs vehicle
  α-synuclein protein levels, membrane fraction: lower α-synuclein protein levels
[2]; hippocampus, 45 mg/kg twice a day, 90 days, vs vehicle
  α-synuclein protein levels, membrane fraction: lower α-synuclein protein levels
[3]; 45 mg/kg twice a day
  amount of farnesylated UCH-L1, normalized to actin: decreased the amount of farnesylated UCH-L1
[4]
  neuronal morphology or density (NeuN staining): did not affect neuronal morphology or density

## COC(=O)[C@H](CCSC)NC(=O)c1ccc(NC[C@@H](N)CS)cc1-c1ccccc1 [FTI-277]
[5]; COS-7 cells
  synuclein level: lowers synuclein level
[6]; SH-SY5Y cells infected with α-synuclein adenovirus, data not shown
  neuroprotective effect of FTI-277 on co-administration of the small-molecule UCH-L1 inhibitor: eliminated
[6]; neuronally differentiated SH-SY5Y cells infected with α-synuclein adenovirus
  α-synuclein toxicity / loss of cells: inhibits synuclein toxicity; also recorded: rescued α-synuclein toxicity; also recorded: significantly decreased loss of cells
[7]
  α-synuclein toxicity: inhibit α-synuclein toxicity
[8]
  amount of cytosolic UCH-L1: without affecting
  amount of membrane bound UCH-L1: significant decrease; also recorded: decreased the amount of the membrane-associated species
[9]
  total amount of UCH-L1: reduced the total amount of UCH-L1
[9]; pulse-chase experiment not shown
  rate of turnover of UCH-L1: increased its rate of turnover
[10]
  amount of α-synuclein: reducing the amount of α-synuclein accumulation; also recorded: reduced the amount of α-synuclein

## Cn1cncc1C(N)(c1ccc(Cl)cc1)c1ccc2c(c1)c(-c1cccc(Cl)c1)cc(=O)n2C (stereo not drawn) [Zarnestra]
[1]; cortex, 35 mg/kg twice a day orally, 30 days
  α-synuclein-positive cells per mm^2: significantly fewer
[1]; hippocampus, 35 mg/kg twice a day orally, 30 days
  α-synuclein-positive cells per mm^2: significantly fewer
[11]
  ubiquitin-immunoreactive inclusions: fewer ubiquitin-immunoreactive inclusions
[12]
  inclusions by Campbell-Switzer staining: fewer inclusions
[2]; 35 mg/kg twice a day, 30 days
  levels of α-synuclein protein in the cortex: decreased levels of α-synuclein protein
[2]; [14]
  α-synuclein protein levels, cytoplasmic fraction: lower α-synuclein protein levels
  α-synuclein protein levels, membrane fraction: lower α-synuclein protein levels
[3]; 35 mg/kg twice a day, 35 mg/kg
  amount of farnesylated UCH-L1: decreased; also recorded: decreased the amount of farnesylated UCH-L1 in transgenic mice to levels similar to non-transgenic mice

## CC(=O)N[C@@H](CSC(=O)[C@]1([C@@H](O)C(C)C)NC(=O)[C@H](C)[C@@H]1O)C(=O)O [lactacystin]
[5]; transfected COS-7 cells, 35 μM lactacystin, 24 hours
  accumulation of α-synuclein (16 KDa, normalized against actin): 100%
